Bounds are passed on as bounds.

This note sets out measurements from patent US20240366649A1, “4-ETHYNYL-3-HYDROXY-TETRAHYDROFURANYL-ADENINE PHOSPHORAMIDATES AND RELATED COMPOUNDS AND THEIR USE IN TREATING MEDICAL CONDITIONS” (ROME THERAPEUTICS, INC., priority 2021, published 2024).

In test [1] the test system is IFN-β production in PBMCs. The test is described as follows: Decitabine-stimulated human PBMC assay. In kind it is cell-based. The conditions noted are these: anti-CD3/anti-CD28, 10 μM decitabine, 5 days. The procedure:
EasySep buffer (32 mL, Stem Cell, cat. #20144) was used to dilute 8 mL of LRSC buffy coat (from fresh Leukopak) with gentle mixing. The diluted buffy coat (20 mL) was transferred into each of two SepMate 50 tubes, and the tubes were filled with 15 mL of Lyphoprep (Stem Cell, ct. #07851) density gradient. The SepMate tubes were then centrifuged at 1200G for 10 minutes at room temperature with the brake on. The top layer of supernatant was collected in SepMate tubes by quickly pouring it into a new 50 mL conical tube. The PBMCs were washed with EasySep buffer ×2 by centrifuging at 300G for 5 minutes. The cells were resuspended in 30 mL of EasySep and centrifuged at 100G for 5 minutes with the brake off, and the platelets were removed. The cells were then resuspended in 6 mL of 1×RBC lysis buffer (InvitroGen) and incubated at 37° C. for 5 minutes. Then, 25 mL of EasySep buffer was mixed into the tube and it was centrifuged at 300G for 5 minutes. The cells were resuspended in 10 mL of EasySep buffer and the cells were then counted with Cellometer (AO/PI). The PBMCs were resuspended in RPMI1640 (ThermoFisher)+10% FBS (HyClone)+p/s at 3×10^6/mL. The PBMCs (100 μL, 300 k PBMCs) were then seeded in a 96-well flat bottom microplate (Corning) that had been precoated with 100 μL of anti-CD3 antibody (10 μg/mL in PBS, Biolegend) or PBS at 4° C., one day before the assay was commenced. […]

Test [2] deals with Pharyngeal cancer FaDu cells. The test is described as follows: Cancer cell viability assay with 3D cell colonies (CellTiter-Glo), FaDu. The format is cell-based. The conditions noted are these: 3D methylcellulose colonies, 7 days. The method, then: (§1) Cancer cell lines were cultured in the following media: • Ovarian cancer OVCAR-8 cells—RPMI media containing 10% FBS • Ovarian cancer SK-OV-3 cells—McCoy's 5a media containing 10% FBS • Ovarian cancer SW756 cells—L-15 (100% air)+10% FBS • Esophageal cancer TE-1 cells—RPMI-1640+10% FBS • Esophageal cancer KYSE-410 cells—RPMI-1640+5˜10% FBS • Esophageal cancer KYSE-70 cells—RPMI-1640+10% h.i.FBS. • Pharyngeal cancer FaDu cells—MEM+0.01 mM NEAA+10% FBS
(§2) Cell colony formation was tested using a 3D methylcellulose-based CellTiter-Glo (CTG) viability assay (Cat. No: G7573, Promega). Briefly, cells were inoculated into 96-well plates (at 1,500 cells per well) into a solution of 0.65% methylcellulose in growth media and incubated overnight at 37° C. in 5% CO2. The next day, serially diluted test compound (islatravir, 4′-ethynyl-2-fluoro-2′-deoxyadenosine) or positive control (cisplatin, Cat. No. 6J015A89, Qilu Pharma) were added at the indicated concentrations, and the cells were incubated for 7 days. On day seven, 100 μL of CTG reagent was added, and the plates were incubated at room temperature for 20 min. Luminescence was read on an Envision Multi Label Reader according to manufacturer's instructions. IC50 values were determined using the following calculation: […]
A general note: ATP-based viability assays read luminescence as a measure of living cells.

In test [3] the test system is Ovarian cancer SW756 cells. In words: Cancer cell viability assay with 3D cell colonies (CellTiter-Glo), SW756. In kind it is cell-based. The conditions noted are these: SW756, 3D methylcellulose colonies, 7 days. The procedure:
as §1, §2

For test [4], the system named is Esophageal cancer KYSE-70 cells. In words: Cancer cell viability assay with 3D cell colonies (CellTiter-Glo), KYSE-70. The conditions noted are these: KYSE-70, 3D methylcellulose colonies, 7 days. The format is cell-based. The procedure:
as §1, §2

The subject of test [5] is Ovarian cancer OVCAR-8 cells. In words: Cancer cell viability assay with 3D cell colonies (CellTiter-Glo), OVCAR-8. The format is cell-based. The conditions noted are these: OVCAR-8, 3D methylcellulose colonies, 7 days. The procedure: as §1, §2
Test [6] deals with Esophageal cancer TE-1 cells. The test is described as follows: Cancer cell viability assay with 3D cell colonies (CellTiter-Glo), TE-1. The format is cell-based. The conditions noted are these: TE-1, 3D methylcellulose colonies, 7 days. The method, then:
as §1, §2

For test [7], the system named is Esophageal cancer KYSE-410 cells. The test is described as follows: Cancer cell viability assay with 3D cell colonies (CellTiter-Glo), KYSE-410. The format is cell-based. The conditions noted are these: KYSE-410, 3D methylcellulose colonies, 7 days. The method, then: as §1, §2
Test [8] has as its system Ovarian cancer SK-OV-3 cells. The test is described as follows: Cancer cell viability assay with 3D cell colonies (CellTiter-Glo), SK-OV-3. The format is cell-based. The conditions noted are these: SK-OV-3, 3D methylcellulose colonies, 7 days. The procedure: as §1, §2
The target in test [9] is LINE1 reverse transcriptase (Homo sapiens, UniProt O00370). In words: Homogeneous time-resolved fluorescence (HTRF) LINE1 RT assay. In kind it is biochemical. Also on record: recombinant MBP-tagged LINE1 protein (238-1061); MBP; made in house. The conditions noted are these: recombinant MBP-tagged LINE1 protein (238-1061), read-out: IC50 for inhibiting LINE1 reverse transcriptase. The method, then:
The LINE1 reverse transcriptase homogeneous time-resolved fluorescence (HTRF) assay was performed with recombinant MBP-tagged LINE1 protein (238-1061) (generated and purified according to procedures in Dai L. et al. BMC Biochemistry 2011; 12:18) in a 384-well format. Test compound was serially diluted in DMSO and further diluted in the assay buffer (50 mM Tris-HCl, 50 mM KCl, 10 mM MgCl2, 10 mM DTT, pH 8.1) to achieve a final DMSO concentration of 1%. The serially diluted compound was mixed with 64 ng/well of LINE1 enzyme, 5 nM of pre-annealed template/biotin-primer pair (synthesized at Generay Biotechnology), 10 nM of Fluorescein-12-dATP fluorescent probe (Perkin Elmer), and 1 μM dGTP/dCTP/dTTP (Thermo Fisher Scientific) in the assay buffer. The template/biotin-primer sequences were as follows:
After incubating at 25° C. for 60 minutes, the detection reagent (20 mM EDTA with streptavidin-terbium cryptate, Cisbio Bioassay) in the PPI buffer (Cisbio Bioassay) was added, and the mixture was incubated at 25° C. for 30 minutes. At the end of the incubation, fluorescence was read at ex/em=337/485 nm and ex/em=337/520 nm on an Envision 2104 plate reader (Perkin Elmer). The fluorescence ratio at 520/485 nm was used for the calculation. […] The IC50 was calculated by fitting the compound dose inhibition curve with a 4-parameter non-linear regression equation.
In general terms: In TR-FRET formats the signal depends on donor and acceptor labels being close together.

The target in test [10] is T1, HERV-K reverse transcriptase (Homo sapiens, UniProt V9H0F6).
T1 construct: fused on or other part: C-terminal 8His tag
In words: Homogeneous time-resolved fluorescence (HTRF) HERV-K RT assay. In kind it is biochemical. The conditions noted are these: HERV-K reverse transcriptase (2-596)-8His protein, read-out: IC50 for inhibiting HERV-K reverse transcriptase. The method, then: The HERV-K reverse transcriptase homogeneous time-resolved fluorescence (HTRF) assay was performed in a 384-well format with HERV-K reverse transcriptase (2-596)-8His protein. Baculoviruses were created using Bac-to-Bac technology (Invitrogen). pFastBac donor plasmids containing HERV-K reverse transcriptase sequence (NCBI GenBank number AAC63291.1, J. Virology (1999) Vol. 73, No. 3, pp. 2365-2375) were transformed into DH10 Bac cells following the manufacturer's instructions. Recombinant bacmids were then isolated clonally and transfected into SF9 cells with lipofectin. HERV-K reverse transcriptase was expressed in the SF9 insect cells and then purified using immobilized metal affinity chromatography (IMAC) followed by size-exclusion chromatography (SEC). […]
After incubating at 25° C. for 30 minutes, the detection reagent 20 mM EDTA with streptavidin-terbium cryptate (Cisbio Bioassay) in the PPI buffer (Cisbio Bioassay) was added, and the mixture was incubated at 25° C. for 60 minutes. At the end of the incubation, fluorescence was read at ex/em=337/485 nm and ex/em=337/520 nm on an Envision 2104 plate reader (Perkin Elmer). The fluorescence ratio at 520/485 nm was used for the calculation. […] The IC50 was calculated by fitting the compound dose inhibition curve with a 4-parameter non-linear regression equation.

T1 sequence (V9H0F6 entry or part of it): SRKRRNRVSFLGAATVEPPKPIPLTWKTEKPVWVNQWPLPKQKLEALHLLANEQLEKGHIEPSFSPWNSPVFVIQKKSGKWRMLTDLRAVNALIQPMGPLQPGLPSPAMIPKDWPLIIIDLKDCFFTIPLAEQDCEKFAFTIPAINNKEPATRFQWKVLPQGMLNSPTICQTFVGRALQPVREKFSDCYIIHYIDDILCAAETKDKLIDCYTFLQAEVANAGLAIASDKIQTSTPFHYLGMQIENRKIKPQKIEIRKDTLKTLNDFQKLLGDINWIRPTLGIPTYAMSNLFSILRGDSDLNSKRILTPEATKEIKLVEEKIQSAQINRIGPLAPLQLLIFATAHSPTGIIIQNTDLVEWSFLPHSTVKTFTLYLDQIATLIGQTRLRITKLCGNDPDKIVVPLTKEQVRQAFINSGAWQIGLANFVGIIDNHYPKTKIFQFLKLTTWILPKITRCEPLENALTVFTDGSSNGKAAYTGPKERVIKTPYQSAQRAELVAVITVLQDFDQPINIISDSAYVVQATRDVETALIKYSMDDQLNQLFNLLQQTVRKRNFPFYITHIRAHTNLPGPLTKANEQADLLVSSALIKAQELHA

Regarding `C#C[C@]1(CO)O[C@@H](n2cnc3c(N)nc(Cl)nc32)C[C@@H]1O` [4′-ethynyl-2-chloro-2′-deoxyadenosine], the “production of IFN-β” value in test [1] is on record as “activated production of IFN-β”.

With `N.N.[Cl][Pt][Cl]` [Cisplatin, cisplatin], the IC50 in test [2] was not above 10000 nM; in test [3], not above 10000 nM; in [4], not above 10000 nM; in test [5], not above 10000 nM; in test [6], not above 10000 nM; in [7] it was more than 30000 nM. The compound further gave a half-inhibitory concentration (IC50) in test [8] not above 10000 nM.

In the case of `C#C[C@]1(COP(=O)(O)OP(=O)(O)OP(=O)(O)O)O[C@@H](n2cnc3c(N)nc(F)nc32)C[C@@H]1O` [drawing 277], the half-maximal inhibitory concentration (IC50) in test [9] is 23 nM.

Take `C#C[C@]1(COP(=O)(O)OP(=O)(O)OP(=O)(O)O)O[C@@H](n2cnc3c(N)nc(Cl)nc32)C[C@@H]1O` [drawing 278]: in test [9], the IC50 stood at 20 nM.

As to `C#C[C@]1(COP(=O)(O)OP(=O)(O)OP(=O)(O)O)O[C@@H](n2cnc3c(N)nc(F)nc32)C[C@@H]1O` [drawing 279], in test [10], the IC50 is 17.8 nM.

Turning to `C#C[C@]1(COP(=O)(O)OP(=O)(O)OP(=O)(O)O)O[C@@H](n2cnc3c(N)nc(Cl)nc32)C[C@@H]1O` [drawing 280], the half-maximal inhibitory concentration (IC50) in test [10] came to 310 nM.

By IC50 is commonly meant the concentration that inhibits the measured activity by half.
